In patent US11110082B2, “Tyrosine kinase inhibitors” (Rigel Pharmaceuticals, Inc., priority 2016, dated 2021):

Biological target: T1, MerTK (Homo sapiens, UniProt Q12866)
T1 construct: Seed HUVECs (10K cells/well) in EBM-2 complete media; host or cells: HUVEC (primary human umbilical vein endothelial cells)
T1 sequence (Q12866 21-999): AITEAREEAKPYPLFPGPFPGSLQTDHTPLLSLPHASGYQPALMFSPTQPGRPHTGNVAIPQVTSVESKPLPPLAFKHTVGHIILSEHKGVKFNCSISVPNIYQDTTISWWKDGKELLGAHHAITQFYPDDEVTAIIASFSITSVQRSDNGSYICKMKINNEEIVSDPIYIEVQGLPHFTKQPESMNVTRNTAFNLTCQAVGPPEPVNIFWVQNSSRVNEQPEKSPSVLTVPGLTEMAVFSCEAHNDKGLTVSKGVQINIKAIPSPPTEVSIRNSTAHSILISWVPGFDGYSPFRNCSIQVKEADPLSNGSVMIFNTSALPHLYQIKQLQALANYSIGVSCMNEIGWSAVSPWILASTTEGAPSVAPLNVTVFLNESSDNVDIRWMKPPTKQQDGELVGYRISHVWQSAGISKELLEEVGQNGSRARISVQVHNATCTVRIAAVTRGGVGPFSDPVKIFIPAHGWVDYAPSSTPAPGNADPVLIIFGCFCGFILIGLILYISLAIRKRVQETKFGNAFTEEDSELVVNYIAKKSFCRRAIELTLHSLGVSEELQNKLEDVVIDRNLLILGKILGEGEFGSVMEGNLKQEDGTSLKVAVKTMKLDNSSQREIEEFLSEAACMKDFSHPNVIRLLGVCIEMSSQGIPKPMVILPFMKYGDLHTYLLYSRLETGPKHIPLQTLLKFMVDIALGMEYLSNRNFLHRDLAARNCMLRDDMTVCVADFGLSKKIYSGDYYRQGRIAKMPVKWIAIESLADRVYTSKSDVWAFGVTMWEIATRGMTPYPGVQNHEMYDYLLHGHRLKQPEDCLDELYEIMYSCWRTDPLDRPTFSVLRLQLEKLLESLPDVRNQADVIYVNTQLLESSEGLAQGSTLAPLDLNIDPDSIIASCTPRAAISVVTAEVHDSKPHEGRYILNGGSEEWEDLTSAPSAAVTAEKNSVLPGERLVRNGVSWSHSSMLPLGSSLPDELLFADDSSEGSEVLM
Experiment: PAKT HTRF-HUVEC assay (pAkt Ser473 HTRF after anti-human MerTK-XL stimulation)
Assay type: cell-based
Conditions: HUVEC cells, 1 hour compound, stimulated with anti-human MerTK-XL 1 ug/mL for 10 minutes, read-out: inhibition of MerTK
In short: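 Akt Ser473 phosphorylation measured by HTRF in lysates of serum-starved HUVECs. Cells received compound for 1 h at 37° C before a 10-min challenge with antibody-cross-linked anti-MerTK (1 ug/mL final); EC50 derived by curve fit.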

EC50 | SMILES
54.6 nM | CCCCNc1ncc2c3ccc(CN4CCN(C)CC4)cc3c(=O)n([C@H]3CC[C@H](C(N)=O)CC3)c2n1 [Compound 131, trans-4-(3-(Butylamino)-8-((4-methylpiperazin-1-yl)methyl)-6-oxopyrimido[4,5-c]isoquinolin-5(6H)-yl)cyclohexane-1-carboxamide]
1550 nM | CCCCNc1ncc2c3ccc(CN4CCN(C)CC4)cc3c(=O)n([C@H]3CC[C@H](C(=O)O)CC3)c2n1 [Compound 132, trans-4-(3-(Butylamino)-8-((4-methylpiperazin-1-yl)methyl)-6-oxopyrimido[4,5-c]isoquinolin-5(6H)-yl)cyclohexane-1-carboxylic Acid]
1670 nM | CN1CCN(Cc2ccc3c(c2)c(=O)n(C2CCOCC2)c2nc(NCC4CC4)ncc32)CC1 [Compound 133]
347 nM | CN1CCN(Cc2ccc3c(c2)c(=O)n([C@H]2CC[C@H](C(N)=O)CC2)c2nc(NCC4CC4)ncc32)CC1 [Compound 134, trans-4-(3-((Cyclopropylmethyl)amino)-8-((4-methylpiperazin-1-yl)methyl)-6-oxopyrimido[4,5-c]isoquinolin-5(6H)-yl)cyclohexane-1-carboxamide]
4040 nM | CN1CCN(Cc2ccc3c(c2)c(=O)n([C@H]2CC[C@H](C(=O)O)CC2)c2nc(NCC4CC4)ncc32)CC1 [Compound 135, trans-4-(3-((Cyclopropylmethyl)amino)-8-((4-methylpiperazin-1-yl)methyl)-6-oxopyrimido[4,5-c]isoquinolin-5(6H)-yl)cyclohexane-1-carboxylic Acid]
320 nM | CN1CCC(n2c(=O)c3cc(CN4CCN(C)CC4)ccc3c3cnc(NCC4CC4)nc32)CC1 [Compound 136]
19.6 nM | CN1CCN(Cc2ccc3c(c2)c(=O)n([C@H]2CC[C@H](O)CC2)c2nc(NC4CCC4)ncc32)CC1 [Compound 137, trans-3-(cyclobutylamino)-5-(4-hydroxycyclohexyl)-8-((4-methylpiperazin-1-yl)methyl)pyrimido[4,5-c]isoquinolin-6(5H)-one]
68.8 nM | CCCCNc1ncc2c3ccc(CN4CCN(C)CC4)cc3c(=O)n([C@H]3CC[C@H](C(=O)NC)CC3)c2n1 [Compound 138, trans-4-(3-(Butylamino)-8-((4-methylpiperazin-1-yl)methyl)-6-oxopyrimido[4,5-c]isoquinolin-5(6H)-yl)-N-methylcyclohexane-1-carboxamide]
134 nM | CCCCNc1ncc2c3ccc(CN4CCN(C)CC4)cc3c(=O)n([C@H]3CC[C@H](C(=O)NCC(F)(F)F)CC3)c2n1 [Compound 139, trans-4-(3-(Butylamino)-8-((4-methylpiperazin-1-yl)methyl)-6-oxopyrimido[4,5-c]isoquinolin-5(6H)-yl)-N-(2,2,2-trifluoroethyl)cyclohexane-1-carboxamide]
147 nM | CCCCNc1ncc2c3ccc(CN4CCN(C)CC4)cc3c(=O)n([C@H]3CC[C@H](C(=O)NC4COC4)CC3)c2n1 [Compound 140, trans-4-(3-(Butylamino)-8-((4-methylpiperazin-1-yl)methyl)-6-oxopyrimido[4,5-c]isoquinolin-5(6H)-yl)-N-(oxetan-3-yl)cyclohexane-1-carboxamide]
187 nM | CCCCNc1ncc2c3ccc(CN4CCN(C)CC4)cc3c(=O)n([C@H]3CC[C@H](C(=O)NCC4CC4)CC3)c2n1 [Compound 141, trans-4-(3-(Butylamino)-8-((4-methylpiperazin-1-yl)methyl)-6-oxopyrimido[4,5-c]isoquinolin-5(6H)-yl)-N-(cyclopropylmethyl)cyclohexane-1-carboxamide]
115 nM | CCCCNc1ncc2c3ccc(CN4CCN(C)CC4)cc3c(=O)n([C@H]3CC[C@H](C(=O)N(C)C)CC3)c2n1 [Compound 142, trans-4-(3-(Butylamino)-8-((4-methylpiperazin-1-yl)methyl)-6-oxopyrimido[4,5-c]isoquinolin-5(6H)-yl)-N,N-dimethylcyclohexane-1-carboxamide]
13500 nM | O=c1c2cc(CN3CCC(c4nnn[nH]4)CC3)ccc2c2cnc(NCC3CC3)nc2n1C1CCC(O)CC1 (centres unmarked) [Compound 143, 8-((4-(1H-tetrazol-5-yl)piperidin-1-yl)methyl)-3-((cyclopropylmethyl)amino)-5-((1s,4s)-4-hydroxycyclohexyl)pyrimido[4,5-c]isoquinolin-6(5H)-one]
57.3 nM | CCOC1CCN(Cc2ccc3c(c2)c(=O)n(C2CCC(O)CC2)c2nc(NCC4CC4)ncc32)CC1 (centres unmarked) [Compound 144, 3-((cyclopropylmethyl)amino)-8-((4-ethoxypiperidin-1-yl)methyl)-5-((1s,4s)-4-hydroxycyclohexyl)pyrimido[4,5-c]isoquinolin-6(5H)-one]
25.7 nM | CC1(O)CCN(Cc2ccc3c(c2)c(=O)n(C2CCC(O)CC2)c2nc(NCC4CC4)ncc32)CC1 (centres unmarked) [Compound 145, 3-((cyclopropylmethyl)amino)-8-((4-hydroxy-4-methylpiperidin-1-yl)methyl)-5-((1s,4s)-4-hydroxycyclohexyl)pyrimido[4,5-c]isoquinolin-6(5H)-one]
7.4 nM | CN1CCN(Cc2ccc3c(c2)c(=O)n(C2CCC(C)(C)CC2)c2nc(NCC4CCC4)ncc32)CC1 [Compound 146]
46.7 nM | O=c1c2cc(CN3CCN(C4COC4)CC3)ccc2c2cnc(NCC3CC3)nc2n1[C@H]1CC[C@H](O)CC1 [Compound 147]
16.8 nM | CC1(O)CCC(n2c(=O)c3cc(CN4CCN(C5COC5)CC4)ccc3c3cnc(NCC4CC4)nc32)CC1 (centres unmarked) [Compound 148]
53.8 nM | O=c1c2cc(CN3CCC(N4CCCC4)CC3)ccc2c2cnc(NCC3CC3)nc2n1[C@H]1CC[C@H](O)CC1 [Compound 149]

EC50 | SMILES
33.3 nM | CC1(O)CCC(n2c(=O)c3cc(CN4CCC(N5CCCC5)CC4)ccc3c3cnc(NCC4CC4)nc32)CC1 (centres unmarked) [Compound 150]
64.6 nM | O=c1c2cc(CN3CCn4ncnc4C3)ccc2c2cnc(NCC3CC3)nc2n1[C@H]1CC[C@H](O)CC1 [Compound 151]
50.7 nM | O=c1c2cc(CN3CCN(CC(F)(F)F)CC3)ccc2c2cnc(NCC3CC3)nc2n1[C@H]1CC[C@H](O)CC1 [Compound 152]
51.3 nM | O=c1c2cc(CN3CCN(CC(F)F)CC3)ccc2c2cnc(NCC3CC3)nc2n1[C@H]1CC[C@H](O)CC1 [Compound 153]
66 nM | CCCCNc1ncc2c3ccc(CN4CCNCC4)cc3c(=O)n([C@H]3CC[C@H](O)CC3)c2n1 [Compound 154]
149 nM | O=c1c2cc(CN3CCOCC3)ccc2c2cnc(NCC3CC3)nc2n1[C@H]1CC[C@H](O)CC1 [Compound 155]
116 nM | CC1(O)CCC(n2c(=O)c3cc(CN4CCOCC4)ccc3c3cnc(NCC4CC4)nc32)CC1 (centres unmarked) [Compound 156]
49.7 nM | O=c1c2cc(CN3CCN4CCC[C@H]4C3)ccc2c2cnc(NCC3CC3)nc2n1[C@H]1CC[C@H](O)CC1 [Compound 157]
94.8 nM | O=c1c2cc(N3CCC(N4CCCC4)CC3)ccc2c2cnc(NCC3CC3)nc2n1[C@H]1CC[C@H](O)CC1 [Compound 158]
48.7 nM | O=c1c2cc(CN3CCN4CCC[C@@H]4C3)ccc2c2cnc(NCC3CC3)nc2n1[C@H]1CC[C@H](O)CC1 [Compound 159]
221 nM | O=c1c2cc(CN3CCS(=O)(=O)CC3)ccc2c2cnc(NCC3CC3)nc2n1[C@H]1CC[C@H](O)CC1 [Compound 160]
25.9 nM | CCOC(=O)C1CCN(Cc2ccc3c(c2)c(=O)n(C2CCC(O)CC2)c2nc(NCC4CC4)ncc32)CC1 (centres unmarked) [Compound 161]
11900 nM | O=c1c2cc(CN3CC[N+]4([O-])CCC3CC4)ccc2c2cnc(NCC3CC3)nc2n1[C@H]1CC[C@H](O)CC1 [Compound 162]
113 nM | O=c1c2cc(N3CCN4CCC3CC4)ccc2c2cnc(NCC3CC3)nc2n1C1CCC(O)CC1 (centres unmarked) [Compound 163]
296 nM | O=c1c2cc(N3CCn4ncnc4C3)ccc2c2cnc(NCC3CC3)nc2n1[C@H]1CC[C@H](O)CC1 [Compound 164]
401 nM | O=c1c2cc(CN3CC[S+]([O-])CC3)ccc2c2cnc(NCC3CC3)nc2n1[C@H]1CC[C@H](O)CC1 [Compound 165]
289 nM | O=c1c2cc(N3CCN(CC(F)(F)F)CC3)ccc2c2cnc(NCC3CC3)nc2n1[C@H]1CC[C@H](O)CC1 [Compound 168]
354 nM | O=c1c2cc(N3CCN(CC(F)F)CC3)ccc2c2cnc(NCC3CC3)nc2n1[C@H]1CC[C@H](O)CC1 [Compound 169]
36.3 nM | O=c1c2cc(CN3CCSCC3)ccc2c2cnc(NCC3CC3)nc2n1[C@H]1CC[C@H](O)CC1 [Compound 170]
